Test results published in PubChem BioAssay AID2060329 (Molecular Pharmacology Branch, DTP, NCI, 2025).
“And” between values parts separate entries of the source, which are not always exact repeats. Equal entries are not always repeated.

System: MCF7 multi-cell spheroids with HUVEC/MSC, viability
Experiment: Anticancer human tumor MCF7 cell line growth inhibition [IpAb];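 also: spheroids exposed to agents for seven days before readout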
Details: for viability, T/C: stronger effect = lower value
Text: Combinatorial screen of targeted agents with ipatasertib and abemaciclib in multi-cell type tumor spheroids
A high-throughput screen of multi-cell type tumor spheroids was designed to identify active combinations of targeted small molecules and ipatasertib or abemaciclib. Complex spheroids include a stromal component modeled by human endothelial cells (HUVEC) and fibroblasts modeled by human mesenchymal stem cells (MSCs). The concentration ranges selected for each drug and investigational agent were based upon clinically achievable concentrations if the clinical Cmax of the agent was known.
Compounds. The drugs and investigational agents: ipatasertib (NSC767898), abemaciclib(NSC768073), selumetinib (NSC741078), trametinib (758246), adavosertib (NSC754352), everolimus (NSC733504), sapanisertib (NSC764658), vemurafenib (NSC761431), venetoclax (NSC766270), copanlisib (NSC809693), apelisib (NSC765974), palbociblib (NSC758247), vemurafenib (NSC761431), dabrafenib (NSC764134), ravoxertinib (NSC781343), BMS-387032 (NSC767048), sotorasib (NSC818433), talazoparib (NSC767125) and afursertib (NSC778305), were obtained from the National Cancer Institute (NCI) Developmental Therapeutics Program Chemical Repository. The FDA-approved anticancer drug set is available from the NCI Developmental Therapeutics Program. […] The stock solutions were prepared in dimethyl sulfoxide (DMSO, Sigma-Aldrich, St. Louis, MO, cat. D2650) at 800-fold the tested concentration and stored at -70 degrees C prior to their use. All drugs and investigational agents were tested over a range starting from a high concentration at or near the clinical Cmax and decreasing in half-log increments. If the clinical Cmax for an agent had not been determined, the highest concentration tested was 10 microM.
NCI60 Cell Culture. NCI60 cell lines were obtained from the NCI Developmental Therapeutics Program Tumor Repository. For each lot of cells, the Repository performed Applied Biosystems AmpFLSTR Identifiler testing with PCR amplification to confirm consistency with the published Identifier STR profile for each cell line. Cells were kept in continuous culture for no more than 20 passages. The optimal seeding densities for each of the cell lines at each time point assessed were determined prior to performing the concentration response studies. Briefly, the NCI60 human tumor lines were grown as monolayers in RPMI 1640 medium supplemented with 10% FBS and 2 mmol/L L-glutamine.
An additional 9 lines were from the NCI60 cell line panel including MDA-MB-231 breast carcinoma, MDA-MB-468 breast carcinoma, MCF7 breast carcinoma, Hs578T breast carcinoma, MALME-3M melanoma, SK-MEL-2 melanoma, SK-OV-3 ovarian carcinoma, DU-145 prostate carcinoma, PC-3 prostate carcinoma, all cell lines along with major genetic alterations are listed on Table 2. Pooled donor human umbilical vein endothelial cells (HUVEC, Lonza, cat. CC-2519) and human mesenchymal stem cells (hMSC, Lonza, cat. PT-2501) were purchased from Lonza (Walkersville, MD).
PDMR cell lines were grown in complete medium (DC medium): Dulbecco's modified Eagle's medium (DMEM)/F12 supplemented with 5% fetal bovine serum (FBS), 2 mM L-glutamine, 100 U/mL penicillin and 100 µg/ml streptomycin, 0.4 µg/ml hydrocortisone, 10 ng/ml epidermal growth factor (EGF) recombinant human protein, 24 µg/mL adenine, and 0.1 mg/mL primocin. During culture from frozen stock vials, PDMR cells were cultured in the same medium containing 10 µM Y-27632 (see Table 3). The PDCs were cultured in complete DMEM/F12 media without 10 microM Y-27632 dihydrochloride for at least two passages prior to the screen. The pooled donor HUVEC and hMSC were cultured in endothelial cell growth medium 2 (PromoCell, Heidelberg, Germany, cat. C-22011) and mesenchymal stem cell growth medium 2 (PromoCell, cat. C-28009), respectively. For all experiments, HUVEC and hMSC were used at passages </=5.
[…]

CCCS(=O)(=O)Nc1ccc(F)c(C(=O)c2c[nH]c3ncc(-c4ccc(Cl)cc4)cc23)c1F + CC(C)NCC(C(=O)N1CCN(c2ncnc3c2C(C)CC3O)CC1)c1ccc(Cl)cc1
IC50 (curve of first compound, second compound 0.1 µM): > 10 µM | IC50 (curve of first compound, second compound 0.316 µM): > 10 µM | IC50 (curve of first compound, second compound 1 µM): > 10 µM | IC50 (curve of first compound, second compound 3.16 µM): > 10 µM | IC50 (curve of first compound, second compound 10 µM): 0.0316 µM | viability, T/C (second compound 0.1 µM, first compound 0.0316 µM): 97% | viability, T/C (second compound 0.1 µM, first compound 0.1 µM): 90% | viability, T/C (second compound 0.1 µM, first compound 0.316 µM): 90.3% | viability, T/C (second compound 0.1 µM, first compound 1 µM): 98.8% | viability, T/C (second compound 0.1 µM, first compound 3.16 µM): 98.5% | viability, T/C (second compound 0.1 µM, first compound 10 µM): 101% | viability, T/C (second compound 0.316 µM, first compound 0.0316 µM): 85.4% | viability, T/C (second compound 0.316 µM, first compound 0.1 µM): 76.6% | viability, T/C (second compound 0.316 µM, first compound 0.316 µM): 86.3% | viability, T/C (second compound 0.316 µM, first compound 1 µM): 76.5% | viability, T/C (second compound 0.316 µM, first compound 3.16 µM): 80.2% | viability, T/C (second compound 0.316 µM, first compound 10 µM): 85.2% | viability, T/C (second compound 1 µM, first compound 0.0316 µM): 73.2% | viability, T/C (second compound 1 µM, first compound 0.1 µM): 70.3% | viability, T/C (second compound 1 µM, first compound 0.316 µM): 69.1% | viability, T/C (second compound 1 µM, first compound 1 µM): 64.5% | viability, T/C (second compound 1 µM, first compound 3.16 µM): 71.3% | viability, T/C (second compound 1 µM, first compound 10 µM): 76.6% | viability, T/C (second compound 3.16 µM, first compound 0.0316 µM): 59.4% | viability, T/C (second compound 3.16 µM, first compound 0.1 µM): 60.1% | viability, T/C (second compound 3.16 µM, first compound 0.316 µM): 53.5% | viability, T/C (second compound 3.16 µM, first compound 1 µM): 52.7% | viability, T/C (second compound 3.16 µM, first compound 3.16 µM): 79.8% | viability, T/C (second compound 3.16 µM, first compound 10 µM): 60% | viability, T/C (second compound 10 µM, first compound 0.0316 µM): 43.4% | viability, T/C (second compound 10 µM, first compound 0.1 µM): 42.7% | viability, T/C (second compound 10 µM, first compound 0.316 µM): 44.1% | viability, T/C (second compound 10 µM, first compound 1 µM): 52.4% | viability, T/C (second compound 10 µM, first compound 3.16 µM): 53.7% | viability, T/C (second compound 10 µM, first compound 10 µM): 9.37%

C=CC(=O)N1CCN(c2nc(=O)n(-c3c(C)ccnc3C(C)C)c3nc(-c4c(O)cccc4F)c(F)cc23)C(C)C1 (centres undefined)
viability, T/C (compound 0.0316 µM): 98.6% and 117% | viability, T/C (compound 0.1 µM): 106% | viability, T/C (compound 0.316 µM): 102% and 121% | viability, T/C (compound 1 µM): 103% and 107% | viability, T/C (compound 3.16 µM): 107% and 83.4% | viability, T/C (compound 10 µM): 71.2% and 76.7% | IC50 (curve of compound): > 10 µM

Cn1nccc1Nc1nccc(-c2ccn(C(CO)c3ccc(Cl)c(F)c3)c(=O)c2)n1 (centres undefined)
viability, T/C (compound 0.0316 µM): 96.3% and 104% | viability, T/C (compound 0.1 µM): 96.2% and 111% | viability, T/C (compound 0.316 µM): 116% and 119% | viability, T/C (compound 1 µM): 129% and 118% | viability, T/C (compound 3.16 µM): 128% and 143% | viability, T/C (compound 10 µM): 88.5% and 102% | IC50 (curve of compound): > 10 µM
